In brackets after ≈: the same amount, converted by molar mass.
Tests used:
Carbonic anhydrase 4 = molecular target: T1, Carbonic anhydrase 4 (Bos taurus, UniProt Q95323)
T1 sequence (Q95323 whole entry): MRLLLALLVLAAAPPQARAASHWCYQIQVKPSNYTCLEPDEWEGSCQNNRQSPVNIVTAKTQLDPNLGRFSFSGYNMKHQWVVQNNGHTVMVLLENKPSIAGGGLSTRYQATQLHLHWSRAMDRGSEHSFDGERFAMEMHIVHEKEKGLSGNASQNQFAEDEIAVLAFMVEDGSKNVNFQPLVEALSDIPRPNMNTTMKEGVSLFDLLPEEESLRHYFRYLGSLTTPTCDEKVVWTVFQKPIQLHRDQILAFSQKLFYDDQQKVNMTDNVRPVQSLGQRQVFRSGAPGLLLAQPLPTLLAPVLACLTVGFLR
Description: Inhibitory activity against bovine lung microsomes carbonic anhydrase isozyme IV (bCA IV).

Carbonic anhydrase 2 [1] = molecular target: T2, Carbonic anhydrase 2 (Homo sapiens, UniProt P00918)
Description: Inhibitory activity against human recombinant carbonic anhydrase II

Carbonic anhydrase 1 [2] = molecular target: T3, Carbonic anhydrase 1 (Homo sapiens, UniProt P00915)
T3 sequence (P00915 whole entry): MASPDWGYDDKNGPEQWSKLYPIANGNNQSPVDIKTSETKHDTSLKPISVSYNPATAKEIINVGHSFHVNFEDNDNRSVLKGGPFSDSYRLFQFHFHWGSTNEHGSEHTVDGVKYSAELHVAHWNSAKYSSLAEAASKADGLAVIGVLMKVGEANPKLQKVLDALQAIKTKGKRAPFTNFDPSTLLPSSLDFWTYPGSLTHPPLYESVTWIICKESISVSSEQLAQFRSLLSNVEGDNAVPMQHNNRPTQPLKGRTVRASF
Description: Inhibitory activity against human cloned carbonic anhydrase isozyme I (hCA I, cytosolic form).

Carbonic anhydrase 2 [3] = molecular target: T2, Carbonic anhydrase 2; remark: listed apart in the source
Description: Inhibitory activity against human cloned Carbonic anhydrase II (hCA II, cytosolic form).

Carbonic anhydrase 1 [4] = molecular target: T3, Carbonic anhydrase 1; remark: listed apart in the source
Description: Inhibition of human cloned Carbonic anhydrase I (hCA I,cytosolic form)

[5] = Compound was tested for solubility in pH buffer, at 25 degree C.; format: ADME
[6] = octanol/water
Description: Partition coefficient (logD) (chloroform/buffer)

Oryctolagus cuniculus [7] = species: Oryctolagus cuniculus
Description: Compound was tested in vitro for corneal permeability of compound across the intact cornea obtained from rabbit

Oryctolagus cuniculus [8] = species: Oryctolagus cuniculus; remark: listed apart in the source
Description: Compound was tested in vitro for corneal permeability of compound across the Denuded epithelial cornea obtained from rabbit

Oryctolagus cuniculus [9] = species: Oryctolagus cuniculus; format: functional, Eye
Description: In vivo fall of IOP of normotensive rabbits after treatment with 1 drop(50 microL) of 2% solution of CA inhibitor with pH value 5.5 into the eye at 30 min

Oryctolagus cuniculus [10] = species: Oryctolagus cuniculus; format: functional, Eye; remark: listed apart in the source
Description: In vivo fall of IOP of normotensive rabbits after treatment with 1 drop(50 microL) of 2% solution of CA inhibitor with pH value 5.5 into the eye at 90 min.

Oryctolagus cuniculus [11] = species: Oryctolagus cuniculus; format: functional, Eye; remark: listed apart in the source
Description: In vivo fall of IOP of normotensive rabbits after treatment with 1 drop(50 microL) of 2% solution of CA inhibitor with pH value 5.5 into the eye at 0 min

Oryctolagus cuniculus [12] = species: Oryctolagus cuniculus; format: functional, Eye; remark: listed apart in the source
Description: In vivo fall of IOP of normotensive rabbits after treatment with 1 drop(50 microL) of 2% solution of CA inhibitor with pH value 5.5 into the eye at 60 min

Oryctolagus cuniculus [13] = species: Oryctolagus cuniculus; format: functional, Eye; remark: listed apart in the source
Description: In vivo fall of IOP of Glaucomatous rabbits after treatment with 1 drop(50 microL) of 2% solution of CA inhibitor with pH value 7.4 into the eye at 30 min

Oryctolagus cuniculus [14] = species: Oryctolagus cuniculus; format: functional, Eye; remark: listed apart in the source
Description: In vivo fall of IOP of Glaucomatous rabbits after treatment with 1 drop(50 microL) of 2% solution of CA inhibitor with pH value 7.4 into the eye at 0 min

Oryctolagus cuniculus [15] = species: Oryctolagus cuniculus; format: functional, Eye; remark: listed apart in the source
Description: In vivo fall of IOP of normotensive rabbits after treatment with 1 drop(50 microL) of 2% solution of CA inhibitor with pH value 7.4 into the eye at 60 min

Oryctolagus cuniculus [16] = species: Oryctolagus cuniculus; format: functional, Eye; remark: listed apart in the source
Description: Drug concentration was tested in ocular fluids and tissues after 2 hour following the corneal application in normotensive albino rabbits on cilirary process

Oryctolagus cuniculus [17] = species: Oryctolagus cuniculus; format: functional, Eye; remark: listed apart in the source
Description: Drug concentration was tested in ocular fluids and tissues after 1 hour following the corneal application in normotensive albino rabbits on cilirary process

Oryctolagus cuniculus [18] = species: Oryctolagus cuniculus; format: functional, Eye; remark: listed apart in the source
Description: Drug concentration was tested in ocular fluids and tissues after 1 hour following the corneal application in normotensive albino rabbits on cornea

Oryctolagus cuniculus [19] = species: Oryctolagus cuniculus; format: functional, Eye; remark: listed apart in the source
Description: In vivo fall of IOP of normotensive rabbits after treatment with 1 drop(50 microL) of 2% solution of CA inhibitor with pH value 8.4 into the eye at 30 min

Oryctolagus cuniculus [20] = species: Oryctolagus cuniculus; format: functional, Eye; remark: listed apart in the source
Description: In vivo fall of IOP of Glaucomatous rabbits after treatment with 1 drop(50 microL) of 2% solution of CA inhibitor with pH value 7.4 into the eye at 90 min.

Oryctolagus cuniculus [21] = species: Oryctolagus cuniculus; format: functional, Eye; remark: listed apart in the source
Description: In vivo fall of IOP of normotensive rabbits after treatment with 1 drop(50 microL) of 2% solution of CA inhibitor with pH value 8.4 into the eye at 0 min

Oryctolagus cuniculus [22] = species: Oryctolagus cuniculus; format: functional, Eye; remark: listed apart in the source
Description: In vivo fall of IOP of normotensive rabbits after treatment with 1 drop(50 microL) of 2% solution of CA inhibitor with pH value 7.4 into the eye at 30 min

Oryctolagus cuniculus [23] = species: Oryctolagus cuniculus; format: functional, Eye; remark: listed apart in the source
Description: In vivo fall of IOP of normotensive rabbits after treatment with 1 drop(50 microL) of 2% solution of CA inhibitor with pH value 8.4 into the eye at 60 min

Oryctolagus cuniculus [24] = species: Oryctolagus cuniculus; format: functional, Eye; remark: listed apart in the source
Description: In vivo fall of IOP of normotensive rabbits after treatment with 1 drop(50 microL) of 2% solution of CA inhibitor with pH value 7.4 into the eye at 0 min

Oryctolagus cuniculus [25] = species: Oryctolagus cuniculus; format: functional, Eye; remark: listed apart in the source
Description: Drug concentration was tested in ocular fluids and tissues after 2 hour following the corneal application in normotensive albino rabbits on cornea

Oryctolagus cuniculus [26] = species: Oryctolagus cuniculus; format: functional, Eye; remark: listed apart in the source
Description: Drug concentration was tested in ocular fluids and tissues after 2 hour following the corneal application in normotensive albino rabbits on aqueous humor

Oryctolagus cuniculus [27] = species: Oryctolagus cuniculus; format: functional, Eye; remark: listed apart in the source
Description: In vivo fall of IOP of Glaucomatous rabbits after treatment with 1 drop(50 microL) of 2% solution of CA inhibitor with pH value 7.4 into the eye at 60 min

Oryctolagus cuniculus [28] = species: Oryctolagus cuniculus; format: functional, Eye; remark: listed apart in the source
Description: In vivo fall of IOP of normotensive rabbits after treatment with 1 drop(50 microL) of 2% solution of CA inhibitor with pH value 7.4 into the eye at 90 min.

Oryctolagus cuniculus [29] = species: Oryctolagus cuniculus; format: functional, Eye; remark: listed apart in the source
Description: In vivo fall of IOP of normotensive rabbits after treatment with 1 drop(50 microL) of 2% solution of CA inhibitor with pH value 8.4 into the eye at 90 min.

Oryctolagus cuniculus [30] = species: Oryctolagus cuniculus; format: functional, Eye; remark: listed apart in the source
Description: Drug concentration was tested in ocular fluids and tissues after 1 hour following the corneal application in normotensive albino rabbits on aqueous humor

Structure (SMILES)	Ki (Carbonic anhydrase 4)	Ki (Carbonic anhydrase 2 [1])	Ki (Carbonic anhydrase 1 [2])	further results
NS(=O)(=O)c1ccc(N2C(=O)c3cccnc3C2=O)c(Cl)c1	79 nM	44 nM	620 nM	–
NS(=O)(=O)c1ccc(CN2C(=O)c3cccnc3C2=O)cc1	79 nM	42 nM	–	–
NS(=O)(=O)c1ccc(NN2C(=O)c3cccnc3C2=O)cc1	300 nM	275 nM	21500 nM	–
Nc1ccc(S(N)(=O)=O)cc1Br	66 nM	–	–	–
NS(=O)(=O)c1cccc(NC(=O)c2cccc(C(=O)O)n2)c1	285 nM	–	–	–
NS(=O)(=O)c1ccc(N2C(=O)c3cccnc3C2=O)c(F)c1	46 nM	10 nM	540 nM	–
NS(=O)(=O)c1nc2ccc(ONC(=O)c3cccc(C(=O)O)n3)cc2s1	13 nM	2 nM	16 nM	–
NS(=O)(=O)c1cccc(N2C(=O)c3cccnc3C2=O)c1	305 nM	–	–	Ki (Carbonic anhydrase 2 [3]): 250 nM; Ki (Carbonic anhydrase 1 [4]): 20000 nM
NS(=O)(=O)c1ccc(NC(=O)c2cccc(C(=O)O)n2)c(F)c1	–	8 nM	–	solubility [5]: 66 mM (≈ 22.4 mg/mL); logD [6]: 0.117; Kin (Oryctolagus cuniculus [7]): 1600 h⁻¹; Kin (Oryctolagus cuniculus [8]): 7000 h⁻¹
Cl.NS(=O)(=O)c1nnc(N2C(=O)c3cccnc3C2=O)s1	–	–	–	Delta IOP (Oryctolagus cuniculus [9]): 5.4 mmHg; Delta IOP (Oryctolagus cuniculus [10]): 8.1 mmHg; Delta IOP (Oryctolagus cuniculus [11]): 0 mmHg; Delta IOP (Oryctolagus cuniculus [12]): 9 mmHg
CCN(C(=O)c1cccnc1C(=O)O)C1CC(C)S(=O)(=O)c2sc(S(N)(=O)=O)cc21.CCN(C(=O)c1ncccc1C(=O)O)C1CC(C)S(=O)(=O)c2sc(S(N)(=O)=O)cc21 (stereo unspecified)	18 nM	–	450 nM	–
Cl.NS(=O)(=O)c1ccc(NC(=O)c2cccc(C(=O)O)n2)c(F)c1	–	–	–	Delta IOP (Oryctolagus cuniculus [9]): 2.5 mmHg; Delta IOP (Oryctolagus cuniculus [10]): 3.9 mmHg; Delta IOP (Oryctolagus cuniculus [11]): 0 mmHg; Delta IOP (Oryctolagus cuniculus [12]): 4.2 mmHg
NS(=O)(=O)c1nc2ccc(NC(=O)c3cccc(C(=O)O)n3)cc2s1	11 nM	3 nM	18 nM	–
NS(=O)(=O)c1nnc(NC(=O)c2cccc(C(=O)[O-])n2)s1.[Na+]	–	–	–	Delta IOP (Oryctolagus cuniculus [11]): 0 mmHg
CCOc1ccc2nc(S(N)(=O)=O)sc2c1 [ETHOXZOLAMIDE]	–	–	–	solubility [5]: 0.04 mM (≈ 0.0103 mg/mL)
NS(=O)(=O)c1cc(S(N)(=O)=O)c(NC(=O)c2cccc(C(=O)O)n2)cc1Cl	–	9 nM	–	–
NS(=O)(=O)c1ccc(CONC(=O)c2cccc(C(=O)O)n2)cc1	120 nM	20 nM	2050 nM	–
NS(=O)(=O)c1ccc(N2C(=O)c3cccnc3C2=O)c(Br)c1	75 nM	31 nM	605 nM	–
Nc1ccc2nc(S(N)(=O)=O)sc2c1	19 nM	–	–	Ki (Carbonic anhydrase 1 [4]): 70 nM
NS(=O)(=O)c1ccc(NC(=O)c2cccc(C(=O)O)n2)c(Cl)c1	66 nM	–	–	Ki (Carbonic anhydrase 1 [4]): 600 nM
Cl.NS(=O)(=O)c1nc2ccc(OCCONC(=O)c3cccc(C(=O)O)n3)cc2s1	–	–	–	Delta IOP (Oryctolagus cuniculus [9]): 4 mmHg; Delta IOP (Oryctolagus cuniculus [10]): 9 mmHg; Delta IOP (Oryctolagus cuniculus [11]): 0 mmHg; Delta IOP (Oryctolagus cuniculus [12]): 7.2 mmHg
NS(=O)(=O)c1ccc(CCN2C(=O)c3cccnc3C2=O)cc1	54 nM	9 nM	845 nM	–
Cn1nc(S(N)(=O)=O)s/c1=N\C(=O)c1cccc(C(=O)O)n1	19 nM	7 nM	35 nM	solubility [5]: 79 mM (≈ 27.1 mg/mL); logD [6]: 0.428; Kin (Oryctolagus cuniculus [7]): 3600 h⁻¹; Kin (Oryctolagus cuniculus [8]): 8500 h⁻¹
Nc1ccc(S(N)(=O)=O)cc1I	125 nM	–	6000 nM	–
NS(=O)(=O)c1cc(S(N)(=O)=O)c(N2C(=O)c3cccnc3C2=O)c(Cl)c1Cl	69 nM	–	–	Ki (Carbonic anhydrase 2 [3]): 12 nM; Ki (Carbonic anhydrase 1 [4]): 500 nM
NS(=O)(=O)c1ccc(NNC(=O)c2cccc(C(=O)O)n2)cc1	–	270 nM	20600 nM	–
NS(=O)(=O)c1nnc(N2C(=O)c3cccnc3C2=O)s1	18 nM	–	–	Ki (Carbonic anhydrase 2 [3]): 8 nM; solubility [5]: 72 mM (≈ 22.4 mg/mL); Ki (Carbonic anhydrase 1 [4]): 39 nM; logD [6]: 0.315; Kin (Oryctolagus cuniculus [7]): 2500 h⁻¹; Kin (Oryctolagus cuniculus [8]): 7600 h⁻¹

Structure (SMILES)	Ki (Carbonic anhydrase 4)	Ki (Carbonic anhydrase 2 [1])	Ki (Carbonic anhydrase 1 [2])	further results
NCCC(=O)Nc1nnc(S(N)(=O)=O)s1	125 nM	–	–	–
Nc1ccccc1S(N)(=O)=O	1310 nM	–	–	–
NS(=O)(=O)c1ccc(N2C(=O)c3cccnc3C2=O)cc1	170 nM	–	–	Ki (Carbonic anhydrase 2 [3]): 132 nM; Ki (Carbonic anhydrase 1 [4]): 15500 nM
CCN(C(=O)c1cccc(C(=O)[O-])n1)C1CC(C)S(=O)(=O)c2sc(S(N)(=O)=O)cc21.[Na+] (stereo unspecified)	–	–	–	Delta IOP (Oryctolagus cuniculus [13]): 6.5 mmHg; Delta IOP (Oryctolagus cuniculus [14]): 0 mmHg; Delta IOP (Oryctolagus cuniculus [15]): 7.2 mmHg; Drug concentration (Oryctolagus cuniculus [16]): 10 µM; Drug concentration (Oryctolagus cuniculus [17]): 47 µM; Drug concentration (Oryctolagus cuniculus [18]): 113 µM; Delta IOP (Oryctolagus cuniculus [19]): 3.6 mmHg; Delta IOP (Oryctolagus cuniculus [20]): 11.8 mmHg; Delta IOP (Oryctolagus cuniculus [21]): 0 mmHg; Delta IOP (Oryctolagus cuniculus [22]): 3.5 mmHg; Delta IOP (Oryctolagus cuniculus [23]): 7.7 mmHg; Delta IOP (Oryctolagus cuniculus [24]): 0 mmHg; Drug concentration (Oryctolagus cuniculus [25]): 44 µM; Drug concentration (Oryctolagus cuniculus [26]): 39 µM; Delta IOP (Oryctolagus cuniculus [27]): 10.1 mmHg; Delta IOP (Oryctolagus cuniculus [28]): 9.8 mmHg; Delta IOP (Oryctolagus cuniculus [29]): 9.9 mmHg; Drug concentration (Oryctolagus cuniculus [30]): 278 µM
NS(=O)(=O)c1ccc(CCO)cc1	450 nM	–	–	–
NS(=O)(=O)c1ccc(CCONC(=O)c2cccc(C(=O)O)n2)cc1	105 nM	15 nM	2000 nM	–
Nc1ccc(S(N)(=O)=O)cc1F	180 nM	–	–	–
NS(=O)(=O)c1ccc(N2C(=O)c3cccnc3C2=O)c(I)c1	70 nM	33 nM	610 nM	–
NS(=O)(=O)c1cc(S(N)(=O)=O)c(NC(=O)c2cccc(C(=O)O)n2)c(Cl)c1Cl	55 nM	10 nM	450 nM	–
NS(=O)(=O)c1ccccc1N1C(=O)c2cccnc2C1=O	310 nM	280 nM	21000 nM	–
NS(=O)(=O)c1nc2ccc(N3C(=O)c4cccnc4C3=O)cc2s1	9 nM	–	–	Ki (Carbonic anhydrase 2 [3]): 4 nM; Ki (Carbonic anhydrase 1 [4]): 12 nM
NS(=O)(=O)c1ccc(CCNC(=O)c2cccc(C(=O)O)n2)cc1	–	7 nM	–	–
NS(=O)(=O)c1cc(S(N)(=O)=O)c(N2C(=O)c3cccnc3C2=O)cc1Cl	60 nM	–	–	Ki (Carbonic anhydrase 2 [3]): 9 nM; Ki (Carbonic anhydrase 1 [4]): 600 nM
NS(=O)(=O)c1nc2ccc(OCCONC(=O)c3cccc(C(=O)O)n3)cc2s1	10 nM	3 nM	15 nM	–
CCN(C(=O)c1cccnc1C(=O)O)C1CC(C)S(=O)(=O)c2sc(S(N)(=O)=O)cc21.CCN(C(=O)c1ncccc1C(=O)O)C1CC(C)S(=O)(=O)c2sc(S(N)(=O)=O)cc21.Cl (stereo unspecified)	–	–	–	Delta IOP (Oryctolagus cuniculus [9]): 2.4 mmHg; Delta IOP (Oryctolagus cuniculus [10]): 3.5 mmHg; Delta IOP (Oryctolagus cuniculus [11]): 0 mmHg; Delta IOP (Oryctolagus cuniculus [12]): 5.2 mmHg
NS(=O)(=O)c1nc2ccc(OCCO)cc2s1	15 nM	–	[…]	–
Cl.NS(=O)(=O)c1ccc(CCN2C(=O)c3cccnc3C2=O)cc1	–	–	–	Delta IOP (Oryctolagus cuniculus [9]): 2.7 mmHg; Delta IOP (Oryctolagus cuniculus [10]): 4.2 mmHg; Delta IOP (Oryctolagus cuniculus [11]): 0 mmHg; Delta IOP (Oryctolagus cuniculus [12]): 4.8 mmHg
NS(=O)(=O)c1ccc(CNC(=O)c2cccc(C(=O)O)n2)cc1	–	36 nM	–	–
NS(=O)(=O)c1ccccc1NC(=O)c1cccc(C(=O)O)n1	300 nM	–	–	–
NS(=O)(=O)c1nnc(NC(=O)CCNC(=O)c2cccc(C(=O)O)n2)s1	9 nM	2 nM	19 nM	–
NS(=O)(=O)c1ccc(NC(=O)c2cccc(C(=O)O)n2)cc1	150 nM	–	15000 nM	–
Cl.NS(=O)(=O)c1nnc(NC(=O)CCN2C(=O)c3cccnc3C2=O)s1	–	–	–	Drug concentration (Oryctolagus cuniculus [16]): 12 µM; Drug concentration (Oryctolagus cuniculus [17]): 50 µM; Drug concentration (Oryctolagus cuniculus [18]): 158 µM; Drug concentration (Oryctolagus cuniculus [25]): 45 µM; Drug concentration (Oryctolagus cuniculus [26]): 42 µM; Drug concentration (Oryctolagus cuniculus [30]): 280 µM
NS(=O)(=O)c1ccc(NC(=O)c2cccc(C(=O)O)n2)c(I)c1	–	–	600 nM	–
NS(=O)(=O)c1ccc(NC(=O)c2cccc(C(=O)O)n2)c(Br)c1	69 nM	–	575 nM	–
NS(=O)(=O)c1nnc(NC(=O)CCN2C(=O)c3cccnc3C2=O)s1	–	–	–	Ki (Carbonic anhydrase 2 [3]): 3 nM; solubility [5]: 81 mM (≈ 31 mg/mL); Ki (Carbonic anhydrase 1 [4]): 18 nM; logD [6]: 0.449; Kin (Oryctolagus cuniculus [7]): 3800 h⁻¹; Kin (Oryctolagus cuniculus [8]): 9700 h⁻¹
NS(=O)(=O)c1nnc(NC(=O)c2cccc(C(=O)O)n2)s1	21 nM	6 nM	36 nM	solubility [5]: 83 mM (≈ 27.3 mg/mL); logD [6]: 0.085; Kin (Oryctolagus cuniculus [7]): 1100 h⁻¹; Kin (Oryctolagus cuniculus [8]): 6400 h⁻¹
Nc1c(S(N)(=O)=O)cc(S(N)(=O)=O)c(Cl)c1Cl	175 nM	–	6100 nM	–
